# Test results from patent EP0709099A2, “An aqueous nasal suspension comprising cyclodextrin” (Senju Pharmaceutical Co., Ltd., priority 1994, dated 1996).
# Assay: Stability constant of the drug in relation to cyclodextrin (solubility method, Higuchi et al.)
# Type: physicochemical
# Details: 25°C, 24 hours shaking
# Protocol: The stability constant of the drug in relation to cyclodextrin calculated by the solubility method is determined in the manner that, with the concentration of each drug being kept unchanged, a mixture of the drug and a cyclodextrin solution of varying concentration is shaken on a shaker at the rate of 200 cycles/min at 25°C for 24 hours to construct a solubility phase diagram of the drug at saturation in cyclodextrin solution and the stability constant is calculate by the method of Higuchi et al. [Advances in Analytical Chemistry and Instrumentation, Vol. 4, 144-148 (1965)].
# The stability constant of the drug in relation to cyclodextrin was calculated applying the formula (8) on page 146, in "Advances in Analytical Chemistry and Instrumentation", Vol. 4, (1965).
Stability Constant α-CyD,Stability Constant β-CyD,Structure (SMILES)
54,911,CC(=O)[C@@]1(O)CC[C@H]2[C@@H]3C[C@H](C)C4=CC(=O)C=C[C@]4(C)[C@@]3(F)[C@@H](O)C[C@@]21C [Fluorometholone]
114,305,CCOC(=O)O[C@]1(C(=O)OCCl)CC[C@H]2[C@@H]3CCC4=CC(=O)C=C[C@]4(C)[C@H]3[C@@H](O)C[C@@]21C [Loteprednol Etabonate]
